Assay results taken from ChEMBL document CHEMBL1152017, “Peptide-binding antibiotics: A solid-phase assay for screening libraries of vancomycin mimics for selective d-Ala-d-Ala binding” (Bioorg Med Chem Lett, 1997).

Experiment: The compound was tested for binding constant against d-Ala-d-Ala termini on bacterial cell surface

| KA | SMILES |
| --- | --- |
| 1.3 mM⁻¹ | C[C@@H](NC(=O)[C@@H](C)NC(=O)CNS(=O)(=O)c1cccc2c(N(C)C)cccc12)C(=O)O |
| 16 mM⁻¹ | C[C@H](NC(=O)CNS(=O)(=O)c1cccc2c(N(C)C)cccc12)C(=O)N[C@H](C)C(=O)O |
| < 0.02 mM⁻¹ | C[C@H](NC(=O)CNS(=O)(=O)c1cccc2c(N(C)C)cccc12)C(=O)O[C@H](C)C(=O)O |
| 1.1 mM⁻¹ | C[C@H](NC(=O)[C@H](C)NC(=O)CNS(=O)(=O)c1cccc2c(N(C)C)cccc12)C(=O)O |
